Counter-ions that a name gives are not always drawn.
How the values were obtained:
[1] = test system: normal mice; assay: in vivo assay for muscle function following limb muscle injury; conditions: FIG. 1
[2] = test system: male C57BI/6N mice; assay: In vivo assay for functional response to muscle injury (eccentric contraction-induced muscle fatigue); parameters: species or system mouse; conditions: vs vehicle, FIG. 1
Excerpt: In Vivo Assays for Functional Response to Muscle Injury
Under anesthesia, the right hind limb of a mouse is restrained at the knee and the foot attached to a motorized footplate/force transducer. Needle electrodes are inserted into the upper limb, either side of the sciatic nerve and a current sufficient to elicit a maximal muscle contraction is applied. Muscle tension is produced by moving the footplate to lengthen the plantarflexor muscles while the limb is under maximal stimulation. This is repeated 60 times to fatigue the muscles of the lower limb. Anesthesia, limb immobilization and limb stimulation are then repeated at regular intervals to measure maximal isometric force in the recovering limb. 7 to 9 animals are tested for each test condition.

[3] = target: T1, haematopoietic prostaglandin D synthase (H-PGDS) (Homo sapiens, UniProt O60760); assay: H-PGDS RapidFire high throughput mass spectrometry assay (conversion of PGH2 to PGD2); assay type: biochemical; conditions: 10 nM H-PGDS, PGH2 formed in situ by COX-2 from arachidonic acid; read-out: Potency Range (mean pIC50) (converted)
T1 construct: Full length human H-PGDS cDNA (Invitrogen Ultimate ORF 10H13026) was amplified by PCR; 6-His (N); TEV protease cleavage site (N); made in house; host or cells: E. coli BL21 (DE3*), vector pET22b+
How it was run: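 RapidFire SPE–MS read-out calculated percent conversion from relative PGD2 and PGF2α (substrate surrogate) levels. Recombinant full-length human H-PGDS (His-tag, E. coli) turned over PGH2, produced in situ at ˜10 μM by human COX-2 (FLAG-tag, Sf9 cells) acting on arachidonic acid.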

T1 sequence (O60760 whole entry): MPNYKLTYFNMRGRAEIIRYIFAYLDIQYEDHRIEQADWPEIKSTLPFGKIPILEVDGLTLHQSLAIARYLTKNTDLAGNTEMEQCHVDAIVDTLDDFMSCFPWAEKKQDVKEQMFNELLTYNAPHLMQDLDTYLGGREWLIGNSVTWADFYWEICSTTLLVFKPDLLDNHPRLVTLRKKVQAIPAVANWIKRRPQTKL

## CC(C)(O)[C@H]1CC[C@H](NC(=O)N2CC(Oc3cc(F)cc4scnc34)C2)CC1 [Example 141, 3-((6-Fluorobenzo[d]thiazol-4-yl)oxy)-N-((trans)-4-(2-hydroxypropan-2-yl)cyclohexyl)azetidine-1-carboxamide]
[1]
  functional repair dose response curves of H-PGDS inhibition following limb muscle injury: protection and acceleration of functional repair
[2]; PO 3, 10 and 30 mg/kg BID beginning 10 min prior to eccentric contraction challenge
  kinetics of recovery of maximal isometric force after eccentric contraction injury: acceleration in the kinetics of recovery
[2]; PO 3, 10 and 30 mg/kg BID, 24 hours
  initial magnitude of the injury, isometric limb force 24-hours following protocol initiation: reduced the initial magnitude of the injury
[3]
  IC50: 10 to 79.4 nM

## CC(C)(O)Cc1csc(NC(=O)[C@H]2C[C@H](Oc3cccc4cccnc34)C2)n1 [Example 209, (trans)-N-(4-(2-Hydroxy-2-methylpropyl)thiazol-2-yl)-3-(quinolin-8-yloxy)cyclobutanecarboxamide trifluoroacetic acid salt]
[3]
  IC50: 10 to 79.4 nM

## O=C(N[C@H]1CC[C@H](N2CC(F)(F)C2)CC1)N1CC(Oc2cccc3scnc23)C1 [Example 57, 3-(Benzo[d]thiazol-4-yloxy)-N-((trans)-4-(3,3-difluoroazetidin-1-yl)cyclohexyl)azetidine-1-carboxamide]
[3]
  IC50: 100 to 1000 nM

## Cc1nnc(NC(=O)[C@H]2C[C@H](Oc3cccc4ccoc34)C2)s1 [Example 266, (trans)-3-(Benzofuran-7-yloxy)-N-(5-methyl-1,3,4-thiadiazol-2-yl)cyclobutanecarboxamide]
[3]
  IC50: 10 to 79.4 nM

## CCC(=O)C1CC2(CC(NC(=O)[C@H]3C[C@H](Oc4cc(F)cc5scnc45)C3)C2)C1 (stereo partly drawn) [Example 233, (trans)-3-((6-Fluorobenzo[d]thiazol-4-yl)oxy)-N-(6-propionylspiro[3.31]heptan-2-yl)cyclobutanecarboxamide]
[3]
  IC50: 10 to 79.4 nM

## CC(C)(O)[C@H]1CC[C@H](NC(=O)N2CC(Oc3cc(C(N)=O)cc4scnc34)C2)CC1 [Example 330, 4-((1-(((trans)-4-(2-Hydroxypropan-2-yl)cyclohexyl)carbamoyl)azetidin-3-yl)oxy)benzo[d]thiazole-6-carboxamide]
[3]
  IC50: 10 to 79.4 nM

## NC(=O)c1csc(NC(=O)[C@H]2C[C@H](Oc3cccc4cccnc34)C2)n1 [Example 189, 2-((trans)-3-(Quinolin-8-yloxy)cyclobutanecarboxamido)thiazole-4-carboxamide, trifluoroacetic acid salt]
[3]
  IC50: 10 to 79.4 nM

## CC(N1CCC(NC(=O)N2CC(Oc3cccc4scnc34)C2)CC1)C(F)(F)F (racemic) [Example 86, Racemic 3-(Benzo[d]thiazol-4-yloxy)-N-(1-(1,1,1-trifluoropropan-2-yl)piperidin-4-yl)azetidine-1-carboxamide]
[3]
  IC50: 10 to 79.4 nM

## O=C(N[C@H]1C[C@H](Nc2ncccn2)C1)[C@H]1C[C@H](Oc2cccc3scnc23)C1 [Example 73, (trans)-3-(Benzo[d]thiazol-4-yloxy)-N-((trans)-3-(pyrimidin-2-ylamino)cyclobutyl)cyclobutanecarboxamide]
[3]
  IC50: 100 to 1000 nM

## O=C(N[C@H]1CC[C@H](N[C@@H](CO)C(F)(F)F)CC1)N1CC(Oc2cccc3scnc23)C1 [Example 53, 3-(Benzo[d]thiazol-4-yloxy)-N-((trans)-4-(((S)-1,1,1-trifluoro-3-hydroxypropan-2-yl)amino)cyclohexyl)azetidine-1-carboxamide]
[3]
  IC50: 10 to 79.4 nM

## CC(C)(O)c1csc(NC(=O)[C@H]2C[C@H](Oc3cccc4cccnc34)C2)n1 [Example 200, (trans)-N-(4-(2-Hydroxypropan-2-yl)thiazol-2-yl)-3-(quinolin-8-yloxy)cyclobutanecarboxamide]
[3]
  IC50: 10 to 79.4 nM

## O=C(NC1CCN(CC(F)(F)F)CC1)[C@H]1C[C@H](Oc2cccc3cccnc23)C1 [Example 224, (trans)-3-(Quinolin-8-yloxy)-N-(1-(2,2,2-trifluoroethyl)piperidin-4-yl)cyclobutanecarboxamide]
[3]
  IC50: 10 to 79.4 nM
